From PubChem BioAssay (NCI)
Values joined by “and” are separate entries in the source; they are usually repeats but may differ in a detail not shown here. Equal values may be shown once.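 How tested: cells in 96-well plates exposed to compound for 48 hours at five concentrations. GI50 = concentration required for 50% inhibition of growth. TGI denotes the concentration required for complete inhibition of growth.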

Tests used:
Assay in all cases: growth of human tumour cells (NCI), 48 h
A549 NSCLC = test system: A549 NSCLC
ACHN renal = test system: ACHN renal
COLO 205 colon = test system: COLO 205 colon
HCT-116 colon = test system: HCT-116 colon
HOP-92 NSCLC = test system: HOP-92 NSCLC
KM12 colon = test system: KM12 colon
SK-MEL-5 melanoma = test system: SK-MEL-5 melanoma
SN12C renal = test system: SN12C renal
UACC-62 melanoma = test system: UACC-62 melanoma
OVCAR-4 ovarian = test system: OVCAR-4 ovarian

SMILES | GI50 (A549 NSCLC) [µM] | TGI (A549 NSCLC) | GI50 (ACHN renal) [µM] | TGI (ACHN renal) | GI50 (COLO 205 colon) | TGI (COLO 205 colon) | GI50 (HCT-116 colon) [µM] | TGI (HCT-116 colon) [µM] | GI50 (HOP-92 NSCLC) [µM] | TGI (HOP-92 NSCLC) [µM] | GI50 (KM12 colon) | TGI (KM12 colon) [µM] | GI50 (SK-MEL-5 melanoma) | TGI (SK-MEL-5 melanoma) | GI50 (SN12C renal) [µM] | TGI (SN12C renal) [µM] | GI50 (UACC-62 melanoma) [µM] | TGI (UACC-62 melanoma) [µM] | GI50 (OVCAR-4 ovarian) | TGI (OVCAR-4 ovarian)
COc1cc(CNc2nc3cc(N)cc(N)c3nc2-c2ccccc2)cc(OC)c1OC | 4.28 | 33.1 µM | 5.33 | 11.2 µM | 3.77 µM | > 50 µM | 9.84 | 19.1 | 1.21 | 3.12 | 0.478 µM | 10.2 | 0.721 µM | 7.79 µM | 8.66 | 16.7 | 8.09 | 15.5 |  | 
COc1cc[c]([Sb]([Br])([CH]=C(C)C)([CH]=C(C)C)[CH]=C(C)C)cc1 | 11.3 | > 100 µM | 21.7 | > 100 µM | 1.95 µM | 7.99 µM | 4.78 | 73.7 |  |  | 1.98 µM | 25.6 | 3.03 µM | 9.92 µM | 10.9 | > 100 | 3.41 | > 100 | 5.89 µM | > 100 µM
CCN1CCC2(CC1)NC(=O)c1c(c3ccc(Cl)c(Cl)c3n1C)C2C#N (configuration not stated) | 3.13 | 13.5 µM | 2.92 | 12.8 µM | 1.86 µM | 4.11 µM | 2.49 | 4.29 | > 100 | > 100 |  |  | 1.61 µM | 3.06 µM | 4.1 | 16.3 | 1.77 | 3.32 | 3.83 µM | 15.1 µM
COc1ccc(C2=CC(c3ccc(Oc4ccnc5cc(Cl)ccc45)c(OC)c3)c3c(nc(OC)[nH]c3=O)N2)cc1 (configuration not stated) | 5.66 | > 100 µM | 5.24 | > 100 µM | 79.9 µM | > 100 µM | 3.62 | > 100 |  |  | 5.91 µM | > 100 | 7.28 µM | 34.1 µM | 7.03 | > 100 | 4.39 | 35.7 | 6.69 µM | > 100 µM
CC1(C(=O)NCCN(CCNC(=O)C2(C)CC3(C)CC(C)(C2)C(=O)NC3=O)CCNC(=O)C2(C)CC3(C)CC(C)(C2)C(=O)NC3=O)CC2(C)CC(C)(C1)C(=O)NC2=O (configuration not stated) |  | > 100 µM |  | > 100 µM |  | > 100 µM |  | > 100 |  |  |  | > 100 |  |  |  | > 100 |  | > 100 |  | > 100 µM
O=C(Nc1ccc(Cl)cc1F)c1cc(F)ccc1O | 2.79 | > 45.8 µM | 0.83 | 8.27 µM |  |  | 0.702 | 3.51 | 0.196 | 0.874 | 2.03 µM | 5.56 | 0.274 µM | 0.847 µM | 0.643 | 5.64 | 0.289 | 1.15 | 0.941 µM | > 29.6 µM
NCCn1ccc(NC(c2ccccc2)(c2ccccc2)c2ccccc2)nc1=O |  | 75.7 µM |  | > 100 µM |  | 78.6 µM |  | 35.5 |  | 27.4 |  | 52.3 |  |  |  | 42.3 |  |  |  | > 100 µM
COC1=C(C)C(=O)C2=C(C1=O)C(CO)N1C(C#N)C3CC4C(C1C2N1CCOC41)N3C (configuration not stated) | 0.0375 | 7.84 µM and 11.1 µM and 11.8 µM | 0.00277 | 3.54 µM and 10.6 µM | 0.000734 µM and 0.00604 µM and < 0.0134 µM | 0.0203 µM and 0.0151 µM and 0.0205 µM |  |  | 0.0014 |  | 0.0043 µM and 0.0305 µM |  | 0.00264 µM and 0.0262 µM | 0.214 µM and 0.0802 µM and 0.114 µM |  |  |  |  | 0.128 µM and 0.0409 µM and 0.0516 µM | 0.728 µM and 0.218 µM and 0.332 µM
COc1nc2c(cc1S(=O)(=O)c1ccccc1)CCc1c-2cnn1Cc1ccccc1 | > 100 | > 100 µM | 42.6 | > 100 µM | 7.32 µM | > 100 µM | 3.8 | > 100 |  |  | 3.73 µM | > 100 | 2.89 µM | > 100 µM | > 100 | > 100 | 7.52 | > 100 | 5.22 µM | > 100 µM
O=S(=O)(CC#CCCCOCC#Cc1ccccc1C#CCS(=O)(=O)c1ccccc1)c1ccccc1 | 33.6 | > 100 µM | 24.3 | 55 µM | 72.3 µM | > 100 µM | 16.2 | 29.7 |  |  | 33.2 µM | > 100 | 15.3 µM | 31.8 µM | 18.3 | 40.7 | 17.7 | 39.7 |  | 
FC(F)(F)c1[nH]ncc1-c1nc2c(N3CCCCC3)cc3[nH]ncc3c2c2c1CCCC2 | 0.816 | > 12.5 µM | 0.498 | > 28 µM |  |  | 0.432 | 3.57 | 0.29 | 1.62 | 0.793 µM | 7.95 | 0.637 µM | 1.5 µM | 0.878 | > 15.7 | 0.391 | 1.41 | 1.42 µM | > 15.3 µM
NC(=S)N/N=C1\C(=O)N(CCc2ccccc2)C(=O)C1C(=O)NCCc1ccccc1 (configuration not stated) |  |  |  | > 100 µM |  | > 100 µM |  | > 100 |  | > 100 |  | > 100 |  | > 100 µM |  | > 100 |  | > 100 |  | > 100 µM
Cc1cc2c(=O)cc(-c3ccc(C(F)(F)F)cc3)oc2c(C(=O)O)c1C |  | > 100 µM |  | > 100 µM |  | > 100 µM |  | > 100 |  |  |  | > 100 |  | > 100 µM |  | > 100 |  | > 100 |  | > 100 µM
Clc1nc(Cl)c2ncn(C/C=C/Cn3cnc4c(Cl)nc(Cl)nc43)c2n1 | 13.2 | 32 µM | 18.2 | 32.2 µM | 15.1 µM | 35.5 µM | 10.7 | 24.4 |  |  | 17.3 µM | 33.9 | 16.5 µM | 31.1 µM | 19.7 | 40.7 | 17.5 | 32.1 | 20 µM | 34.8 µM
N.N.N.N.N.N#N.[Cl-].[Os+7] | > 100 | > 100 µM |  |  | > 100 µM | > 100 µM | > 100 | > 100 |  |  | > 100 µM | > 100 | > 100 µM | > 100 µM | > 100 | > 100 | > 100 | > 100 | > 100 µM | > 100 µM
